In ChEMBL document CHEMBL3045738, “Control of Greenhouse Whitefly (Trialeurodes vaporariorum) Using Visually Attractive Targets Impregnated with Pyriproxyfen” (J Pestic Sci, 2005):
The source made the active and inactive calls. The rule behind the calls is not given here.

Experiments:
[1] = system: Trialeurodes vaporariorum; experiment: Insecticidal activity against Trialeurodes vaporariorum in bean plant leaf up to 50 days by glasshouse method; type: functional, organism-based
[2] = system: Trialeurodes vaporariorum; experiment: Insecticidal activity against Trialeurodes vaporariorum in ten-leaf stage of bean plant after 10 to 35 days; type: functional, organism-based

Question: Which results are given for `CC(COc1ccc(Oc2ccccc2)cc1)Oc1ccccn1` (racemic)?
Answer: Activity [1]: Active; Activity [2]: Active
